# Data taken from article PMC11751314, “Engineering of acyl ligase domain in non-ribosomal peptide synthetases to change fatty acid moieties of lipopeptides” (Communications Chemistry, 2025).
# What was measured:
# [1] = molecular target: T1, ItuAL_WT-MycACP (ituAL-ACP1) (Bacillus subtilis, UniProt Q93I56); assay: HPLC of fatty acyl-AMP formed ([…] nm); type: biochemical; settings: 1 mM fatty acid, 1 mM ATP, 50 mM MgCl2, 50 mM HEPES pH 7.5, 0.01% Brij35, 30% DMSO, 30 °C, 30 min; 10 μM enzyme, apo-ACP
# T1 construct: gene ituA; N-terminally His-tagged fusion of ItuAL (584 aa, RB14) with adjacent MycACP (ATCC6633); pET28a, E. coli BL21-AI; ACP in apo-form; catalytic pocket lies wholly in ItuAL; with Mycosubtilin synthase subunit A, first acyl carrier protein domain
# T1 sequence (Q93I56 1-584): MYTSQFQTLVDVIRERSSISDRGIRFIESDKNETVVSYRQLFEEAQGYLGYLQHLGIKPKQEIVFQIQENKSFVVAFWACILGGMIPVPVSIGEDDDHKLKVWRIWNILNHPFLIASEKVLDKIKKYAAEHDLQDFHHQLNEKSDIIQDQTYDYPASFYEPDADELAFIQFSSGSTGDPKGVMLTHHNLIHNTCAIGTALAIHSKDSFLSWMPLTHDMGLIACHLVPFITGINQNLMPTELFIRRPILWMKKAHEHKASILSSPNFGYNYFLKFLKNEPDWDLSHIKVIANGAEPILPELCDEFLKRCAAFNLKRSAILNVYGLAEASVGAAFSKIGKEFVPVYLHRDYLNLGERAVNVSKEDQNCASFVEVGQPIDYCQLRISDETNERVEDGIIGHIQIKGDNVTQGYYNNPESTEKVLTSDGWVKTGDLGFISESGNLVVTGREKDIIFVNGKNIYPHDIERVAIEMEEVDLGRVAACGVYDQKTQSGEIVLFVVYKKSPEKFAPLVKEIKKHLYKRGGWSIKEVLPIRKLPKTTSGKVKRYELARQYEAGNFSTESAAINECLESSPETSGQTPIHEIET
# T1 sequence (Q9R9J1 586-668 partner limits assumed): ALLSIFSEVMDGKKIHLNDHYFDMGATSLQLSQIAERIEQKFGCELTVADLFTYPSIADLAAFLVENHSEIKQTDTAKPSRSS
# [2] = molecular target: T2, (ituAL-ACP1) (Bacillus subtilis, UniProt Q93I56, F208G); assay: HPLC of fatty acyl-AMP formed ([…] nm); type: biochemical; settings: 1 mM fatty acid, 1 mM ATP, 50 mM MgCl2, 50 mM HEPES pH 7.5, 0.01% Brij35, 30% DMSO, 30 °C, 30 min; 10 μM enzyme, apo-ACP
# T2 construct: gene ituA; N-terminally His-tagged fusion of ItuAL (584 aa, RB14) with adjacent MycACP (ATCC6633); pET28a, E. coli BL21-AI; ACP in apo-form; catalytic pocket lies wholly in ItuAL; with Mycosubtilin synthase subunit A, first acyl carrier protein domain
# T2 sequence (Q93I56 entry or part of it F208G, one chain of several): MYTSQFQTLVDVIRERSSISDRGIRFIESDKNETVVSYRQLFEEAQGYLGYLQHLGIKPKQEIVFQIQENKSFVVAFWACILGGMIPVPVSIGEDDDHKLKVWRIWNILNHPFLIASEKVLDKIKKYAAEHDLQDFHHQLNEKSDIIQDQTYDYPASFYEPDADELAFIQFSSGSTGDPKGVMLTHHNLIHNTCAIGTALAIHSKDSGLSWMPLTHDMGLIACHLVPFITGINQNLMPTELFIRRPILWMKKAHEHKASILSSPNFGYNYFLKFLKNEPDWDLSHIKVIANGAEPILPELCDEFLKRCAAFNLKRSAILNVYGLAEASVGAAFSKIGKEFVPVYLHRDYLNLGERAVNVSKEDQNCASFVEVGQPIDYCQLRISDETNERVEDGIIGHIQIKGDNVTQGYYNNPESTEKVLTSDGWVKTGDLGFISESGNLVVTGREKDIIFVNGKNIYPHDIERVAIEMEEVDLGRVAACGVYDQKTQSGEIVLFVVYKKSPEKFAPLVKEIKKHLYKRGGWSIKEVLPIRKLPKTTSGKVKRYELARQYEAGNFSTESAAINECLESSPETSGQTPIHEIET
SMILES,relative activity (C10 = 100%) [1],relative activity (C10 = 100%) [2]
"CCCCCCCCCCCC(=O)O [C12, lauric acid]",ItuAL_WT exhibited the highest activity against lauric acid (C12),–
"CCCCCCCCCCCCCCC(=O)O [C15, pentadecanoic acid]",–,ItuAL_F208G exhibited the highest activity against pentadecanoic acid (C15)
